Source: US7531676B2, “Lipids” (Celltech R & D Limited, priority 1999, dated 2009)
Structures can show the parent of a compound that is named as a salt.

How the values were obtained:
[1] = tested on: Chinese Hamster Ovary (CHO) cells; assay: CHO transfection with lipid condensed DNA, beta-galactosidase reporter; format: cell-based; settings: for β-galactosidase in cell extract mUnits per mg protein: CHO cells, Lipid:DNA mass ratio 8:1, pEG/acZ plasmid; for β-galactosidase expression in the CHO cells (in words): lipid condensed DNA versus non-condensed DNA control (undetectable)
Experimental: Plasmid DNA (pEG/acZ) was prepared at concentrations of typically 60 or 120 μg/ml in water. Solutions of lipids according to the invention were prepared in water over a range of concentrations (typically 30 to 960 μg/ml). An equal volume of DNA was added dropwise to a tube containing a solution of the lipids whilst vortexing the tube.
Chinese Hamster Ovary (CHO) cells were seeded in to 24 well plates at 100,000 cells per well 24 h before experiment. Cells were washed once in Optimem™ medium prior to transfection. Wash medium was removed and replaced with 0.5 ml of Optimem™ to which the required amount of lipid condensed DNA was added (typically 1 to 5 μg DNA equivalent). Usually three replicate transfection wells were set up per condensed DNA sample tested. Cells were incubated for a further 34 h at 37° C., 5% CO2 before removal of the complex and additon of 1 ml of fresh medium (Iscoves™ medium: modified DMEM plus glutamate, asparagine, adenosine, guanosine, cytidine, uridine, thymidine and 10% dialysed foetal calf serum). Cells were cultured for a further 48-72 hours before harvesting and assay. Levels of Beta galactosidase reporter gene activity were determined using an enzyme assay system from Promega as follows. Cells were washed twice with I ml of phosphate buffered saline and solubilised in 200 ul of 1× cell lysis buffer. 50 ul of cell extract was incubated with the provided buffer and substrate o-nitrophenyl-β-D-galactopyranoside and the optical density measured spectrophoto-metrically. Levels of β-gal expression were quantitated by reference to the standard curve and related to the amount of protein in the extract (measured using the BCA assay kit from Pierce) to give a final value expressed as mU of β-gal per mg of protein.

DNase I = assay: DNase treatment of lipid/DNA complexes, plasmid integrity by gel; settings: charge ratio of at least 2:1; DNase I 1 unit/1 μg DNA, 37° C., 10 minutes
Text: (§1) One of the ultimate goals of current gene therapy research is to develop a delivery system which will remain stable and effective in vivo, since this would remove the need for expensive and time-consuming ex-vivo manipulations. Since intravenous administration offers the possibility of delivery to the largest number of tissue sites, survival of the gene delivery complex in the presence of serum could be an important feature of any effective technology. Many published studies have demonstated the susceptibility of gene delivery complexes to inactivation by serum even at levels as low as 10%. This effect is due, at least in part, to the destabilisation of complexes by a poorly understood mechanism, and this can lead to degradation of the DNA within the complex by serum-associated nucleases. We have therefore formed complexes between the lipids of the invention and plasmid DNA and subjected these to treatment with purified DNase and pronase as well as with 50% foetal calf serum. Integrity of the plasmid DNA was then measured.
(§2) Plasmid DNA (pEG/acZ) was prepared at a concentration of 120 μg/ml in water. […] Finally, all samples were analysed by electrophoresis on 0.8% agarose gels.

Plasmid DNA (pEG/acZ) = assay: Agarose gel electrophoresis of lipid/plasmid DNA complexes (DNA retardation/condensation); format: binding
Experimental: Plasmid DNA (pEG/acZ) was prepared at a concentration of 120 μg/ml in water. A lipid according to the invention [for example the hexamine H18 described in the Example above] was prepared in a range of concentrations such that charge ratios of lipid:DNA of 0.25:1, 1:1, 2:1, 4:1, 8:1 would be obtained (based on the assumption that DNA at 120 μg/ml is equivalent to 0.387 mM of negative charge, and the hexamine H18 for example at 10 mg/ml is equivalent to 36.23 mM of positive charge). An equal volume of DNA was added dropwise to a vortexing tube containing the lipid in water. For DNase treatment, DNase I (FPLCpure, Pharmacia) was added at a concentration of 1 unit/1 μg of DNA and tubes were incubated at 37° C. for 10 minutes. To inhibit further action of DNase, EGTA was added to a final concentration of 25 mM. For pronase treatment, protease XIV (Sigma) was added to samples to a final concentration of 150 μg/ml, and samples incubated for 30 min at 37° C. Complexes were disrupted in 0.5% SDS with incubation at 55° C. for 20 min. Serum treatment involved incubating the samples in the presence of 50% foetal calf serum (final concentration) for 30 min at 37° C. EGTA was added to a final concentration of 50 mM in an attempt to prevent subsequent action of serum-associated nucleases. Finally, all samples were analysed by electrophoresis on 0.8% agarose gels.

protease XIV (pronase) = assay: Pronase treatment of lipid/DNA complexes, plasmid integrity by gel; settings: protease XIV 150 μg/ml, 30 min at 37° C.
Text: as §1, §2

| SMILES | β-galactosidase in cell extract mUnits per mg protein [1] [mUnits per mg protein] | β-galactosidase expression in the CHO cells (in words) [1] | resistance of condensed DNA to treatment by DNase (DNase I) | mobility of plasmid DNA through gel (Plasmid DNA (pEG/acZ); charge ratio of 2:1 (H18:DNA), 0.8% agarose gel) | visibility of plasmid DNA by ethidium bromide fluorescence (DNA fully condensed) (Plasmid DNA (pEG/acZ); charge ratios higher than 2:1) | resistance of lipid/DNA condensates to treatment by pronase (protease XIV (pronase)) |
| --- | --- | --- | --- | --- | --- | --- |
| NCCCCNCC(CCCCCCNC(=O)CCCCCCCCCCCCCCCCCCCCCCCNC(=O)[C@H](O)[C@H](O)[C@H](O)[C@H](O)CO)CNCCCCN (stereo in doubt) [Lipid H3, (trifluoroacetate) salt] | 11 ± 4 | significant β-galactosidase expression | – | – | – | – |
| NCCCNCCCCNCC(CCCCCCNC(=O)CCCCCCCCCCCCCCCCCCCCCCCNC(=O)[C@H](O)[C@@H](O)[C@H](O)[C@H](O)CO)CNCCCCNCCCN (stereo in doubt) [Lipid H18, (trifluoroacetate) salt] | 40 ± 9 | significant β-galactosidase expression | resistant | no DNA entered the gel | no longer visible | resistant |
